Reference: publication PMC3689638, “Cell cycle-dependent activity of the novel dual PI3K-MTORC1/2 inhibitor NVP-BGT226 in acute leukemia” (Molecular Cancer, 2013)
“Also recorded” adds a separate entry of the source. Where two headings read alike, the source gives them in different places.

Tests used:
[1] = tested on: K562 cells (BCR-ABL1); assay: annexin V-based apoptosis assay, K562; type: cell-based; conditions: Homo sapiens, read-out: IC50 induction of apoptosis
Procedure: (§1) Translocation of phosphatidylserine from the inner to the outer leaflet of the plasma membrane as an early indicator of apoptosis was analyzed using an Annexin V-based assay (Immunotech, Marseilles, France) and a FACScalibur® flow cytometer loaded with CellQuest® analysis software (BD, Heidelberg, Germany).

[2] = tested on: AKT phosphorylation (Ser473, Thr308); assay: western immunoblot of AKT signaling, MOLM14 or K562 cells; type: cell-based, human
Source text: For comparative analysis, additional lysates from cells treated with an ABL1 or FLT3 tyrosine kinase inhibitor (imatinib for K562 BCR-ABL1 cells, sunitinib for MOLM14 FLT3 ITD cells) as well as rapamycin were used.
(§2) Rabbit anti-panAKT, panFLT3, panABL1 or anti-cleaved caspase 3 antibodies were used at a 1:500 to 1:1000 dilution. Rabbit anti-phospho-AKT antibodies detecting phosphorylated isoforms of T308-AKT, S473-AKT, S807/811-RB, S575-ULK1, T389-p70S6K, Y694-STAT5, FLT3, ABL1 or T202/Y204-ERK1/2 were used at a 1:250 to 1:1000 dilution. An anti-actin mouse monoclonal antibody was used as a loading control. All antibodies, if not otherwise indicated, were purchased from Cell Signaling Technology.
(§3) Cell pellets were lysed with 100 to 150 μl of protein lysis buffer (50 mmol/L Tris, 150 mmol/L NaCl, 1% NP40, 0.25% deoxycholate with added inhibitors aprotinin, AEBSF, leupeptin, pepstatin, sodium orthovanadate, and sodium pyruvate, respectively phosphatase inhibitor cocktails „2“ and „1“ or „3“ (Sigma, St. Louis, MO). Protein from cell lysates (75 to 200 μg protein) was used for whole cell protein analysis after denaturing by Western immunoblot assays using a BioRad Criterion system. Nonspecific binding was blocked by incubating the blots in nonfat dry milk or BSA. Primary antibodies were incubated for one hour or over night, followed by several washes of Tris-buffered saline (TBS) containing 0.005% Tween 20. The appropriate secondary antibody was applied for 30‘, followed by several washes. Antibody-reactive proteins were detected using a LI-COR Odyssey® fluorescence optical system.

[3] = tested on: Ba/F3 KIT D816V; assay: Induction of apoptosis, isogenic Ba/F3 model; type: cell-based, murine
Procedure: as §1

[4] = tested on: Ba/F3 FLT3 WT; assay: Induction of apoptosis, isogenic Ba/F3 model; type: cell-based, murine; conditions: for IC50: Mus musculus, BaF3
Procedure: as §1

[5] = tested on: Ba/F3 FLT3 N841H; assay: Induction of apoptosis, isogenic Ba/F3 model; type: cell-based, murine
Procedure: as §1

[6] = tested on: Ba/F3 BCR/ABL1; assay: Induction of apoptosis, isogenic Ba/F3 model; type: cell-based, murine
Procedure: as §1

[7] = tested on: Ba/F3 KIT D816Y; assay: Induction of apoptosis, isogenic Ba/F3 model; type: cell-based, murine; conditions: for IC50: Mus musculus, BaF3
Procedure: as §1

[8] = tested on: Ba/F3 KIT D816F; assay: Induction of apoptosis, isogenic Ba/F3 model; type: cell-based, murine; conditions: for IC50: Mus musculus, BaF3
Procedure: as §1

[9] = tested on: Ba/F3 Parental (w/ IL3); assay: Induction of apoptosis, isogenic Ba/F3 model; type: cell-based, murine
Procedure: as §1

[10] = tested on: Ba/F3 FLT3 D835Y; assay: Induction of apoptosis, isogenic Ba/F3 model; type: cell-based, murine
Procedure: as §1

[11] = tested on: Ba/F3 FLT3 K663Q; assay: Induction of apoptosis, isogenic Ba/F3 model; type: cell-based, murine
Procedure: as §1

[12] = tested on: Ba/F3 FLT3 ITD; assay: Induction of apoptosis, isogenic Ba/F3 model; type: cell-based, murine; conditions: for IC50: Mus musculus, not reached = > 5 000 nM
Procedure: as §1

[13] = tested on: MOLM14 cells (FLT3 ITD); assay: XTT-based cellular proliferation assay, MOLM14; conditions: Homo sapiens, MOLM-14, read-out: IC50 cellular proliferation, MOLM14
[14] = tested on: K562 cells; assay: cell cycle analysis by PI-stain flow cytometry, K562; type: cell-based, human; conditions: 72h
Procedure: (§4) Accumulation of cells in the G1/G0, S or G2/M phases was monitored 6, 24 and 72 hours after application of either agent.
(§5) A propidium iodide-based flow cytometry assay was assessed as described previously. In short, a propidium iodide stain assay is used to segregate cells according to the DNA content, which is graphically shown in a histogram plot (high content in G2/M, intermediate content in S-phase, low content in G1/G0 and lowest content in dead/apoptotic cells, which defines a sub-G1/G0 fraction),

[15] = tested on: mononuclear cells of a bone marrow donor; assay: XTT-based proliferation assay, donor mononuclear cells ex vivo
Procedure: Bone marrow aspirate and peripheral blood samples from consented patients with acute leukemia as well as samples from healthy blood and bone marrow donors were collected in 5000 U heparin with the approval of the ethics committee of the Medical Faculties of the University of Tübingen or the University of Ulm. Mononuclear cells were isolated by Ficoll-Hypaque density gradient fractionation. Cells were cultured in DMEM medium, supplemented with 20% fetal bovine serum (GIBCO/Invitrogen, Darmstadt, Germany or Biochrom AG, Berlin, Germany), 1% penicillin G (10,000 units/mL), and streptomycin (10,000 μg/mg) and 2 mmol/L L-glutamine.

[16] = tested on: MOLM14 cells; assay: cell cycle analysis by PI-stain flow cytometry, MOLM14; type: cell-based, human; conditions: 72h
Procedure: as §4, §5

[17] = tested on: AKT phosphorylation (S473, T308); assay: western immunoblot of AKT signaling, Jurkat cells; type: cell-based, human
Source text: as §2, §3

[18] = tested on: advanced solid tumors; parameters: method as in PMID 22357447; conditions: patients, phase I study; cited from earlier work
[19] = tested on: Jurkat cells; assay: annexin V-based flow cytometry apoptosis assay, Jurkat; type: cell-based; conditions: Homo sapiens, read-out: IC50 apoptotic cells (linear regression analysis)
Procedure: as §1

[20] = tested on: Ba/F3 parental and mutant-TK transfectant cell lines; assay: Induction of apoptosis, all tested Ba/F3 cell lines; type: cell-based, murine; conditions: Mus musculus, BaF3; virtually all tested Ba/F3 cell lines; read-out: transfectant-specific IC50s, induction of apoptosis (span over cell lines)
Procedure: These findings are in line with our results for the corresponding tested human leukemia cell lines.
as §1

[21] = tested on: pancreatic cancer cell lines; parameters: method as in PMID 22170433; conditions: cited from earlier work
[22] = Homo sapiens, read-out: Proliferation IC50, Pt. Nr. 552 (donor), bone marrow donor, ex vivo
[23] = Mus musculus, BaF3, not reached = > 5 000 nM

Cn1c(=O)n(-c2ccc(C(C)(C)C#N)cc2)c2c3cc(-c4cnc5ccccc5c4)ccc3ncc21 [NVP-BEZ235]
IC50 [1]: > 10000 nM | phosphorylation of AKT (immunoblot) [2]: potently suppressed phosphorylation of AKT at Ser473 as well as Thr308 | Induction of apoptosis At 1000 nM (% apopt.) [3]: 4% | Induction of apoptosis At 5000 nM (% apopt.) [3]: 23% | Induction of apoptosis IC50 ([3]; not reached = > 5 000 nM): Not reached | Induction of apoptosis At 1000 nM (% apopt.) [4]: 38% | Induction of apoptosis At 5000 nM (% apopt.) [4]: 40% | IC50 [4]: 8.3 µM | Induction of apoptosis At 1000 nM (% apopt.) [5]: 19% | Induction of apoptosis At 5000 nM (% apopt.) [5]: 22% | Induction of apoptosis IC50 ([5]; not reached = > 5 000 nM): Not reached | Induction of apoptosis At 1000 nM (% apopt.) [6]: 38% | Induction of apoptosis At 5000 nM (% apopt.) [6]: 39% | Induction of apoptosis IC50 ([6]; not reached = > 5 000 nM): failed to achieve IC50; also recorded: Not reached | Induction of apoptosis At 1000 nM (% apopt.) [7]: 5% | Induction of apoptosis At 5000 nM (% apopt.) [7]: 73% | IC50 [7]: 1360 nM | Induction of apoptosis At 1000 nM (% apopt.) [8]: 40% | Induction of apoptosis At 5000 nM (% apopt.) [8]: 87% | IC50 [8]: 1240 nM | Induction of apoptosis At 1000 nM (% apopt.) [9]: 3% | Induction of apoptosis At 5000 nM (% apopt.) [9]: 6% | Induction of apoptosis IC50 ([9]; not reached = > 5 000 nM): Not reached* | Induction of apoptosis At 1000 nM (% apopt.) [10]: 19% | Induction of apoptosis At 5000 nM (% apopt.) [10]: 28% | Induction of apoptosis IC50 ([10]; not reached = > 5 000 nM): Not reached | Induction of apoptosis At 1000 nM (% apopt.) [11]: 17% | Induction of apoptosis At 5000 nM (% apopt.) [11]: 16% | Induction of apoptosis IC50 ([11]; not reached = > 5 000 nM): Not reached | Induction of apoptosis At 1000 nM (% apopt.) [12]: 19% | Induction of apoptosis At 5000 nM (% apopt.) [12]: 27% | IC50 [12]: > 10000 nM | IC50 [13]: < 100 nM | sub-G1 ([14]; 1000 nM): 13% | sub-G1 ([14]; 10 000 nM): 17% | IC50 [15, 22]: > 1000 nM | IC50 ([15]; read-out: Proliferation IC50, Pt. Nr. 552 (donor), bone marrow donor, ex vivo): 1020 nM | sub-G1 ([16]; 1000 nM): 19% | sub-G1 ([16]; 10 000 nM): 35%

COc1ccc(-c2ccc3ncc4c(c3c2)n(-c2ccc(N3CCNCC3)c(C(F)(F)F)c2)c(=O)n4C)cn1 [NVP-BGT226]
IC50 [1]: 354 nM | phosphorylation of AKT (immunoblot) [2]: potently suppressed phosphorylation of AKT at Ser473 as well as Thr308 | Induction of apoptosis At 1000 nM (% apopt.) [3]: 7% | Induction of apoptosis At 5000 nM (% apopt.) [3]: 99% | IC50 [3, 23]: 1790 nM | Induction of apoptosis At 1000 nM (% apopt.) [4]: 41% | Induction of apoptosis At 5000 nM (% apopt.) [4]: 99% | IC50 [4]: 0.345 µM | Induction of apoptosis At 1000 nM (% apopt.) [5]: 18% | Induction of apoptosis At 5000 nM (% apopt.) [5]: 99% | IC50 [5, 23]: 1210 nM | Induction of apoptosis At 1000 nM (% apopt.) [6]: 56% | Induction of apoptosis At 5000 nM (% apopt.) [6]: 97% | IC50 [6, 23]: 262 nM | Induction of apoptosis At 1000 nM (% apopt.) [7]: 89% | Induction of apoptosis At 5000 nM (% apopt.) [7]: 96% | IC50 [7]: 118 nM | Induction of apoptosis At 1000 nM (% apopt.) [8]: 87% | Induction of apoptosis At 5000 nM (% apopt.) [8]: 89% | IC50 [8]: 258 nM | Induction of apoptosis At 1000 nM (% apopt.) [9]: 7% | Induction of apoptosis At 5000 nM (% apopt.) [9]: 99% | IC50 [9, 23]: 1820 nM | Induction of apoptosis At 1000 nM (% apopt.) [10]: 33% | Induction of apoptosis At 5000 nM (% apopt.) [10]: 98% | IC50 [10, 23]: 1070 nM | Induction of apoptosis At 1000 nM (% apopt.) [11]: 26% | Induction of apoptosis At 5000 nM (% apopt.) [11]: 98% | IC50 [11, 23]: 1110 nM | Induction of apoptosis At 1000 nM (% apopt.) [12]: 38% | Induction of apoptosis At 5000 nM (% apopt.) [12]: 98% | IC50 [12]: 1080 nM | phosphorylation of AKT (immunoblot) [17]: inhibits serine (S473) as well as threonine (T308) phosphorylation of AKT | sub-G1 ([14]; 500 nM): 41% | antitumor activity [18]: variable antitumor activity | IC50 [15, 22]: > 1000 nM | IC50 ([15]; read-out: Proliferation IC50, Pt. Nr. 552 (donor), bone marrow donor, ex vivo, listed as BFT226): 1080 nM | IC50 [19]: 658 nM | IC50 [20]: 120 to 1800 nM | sub-G1 ([16]; 500 nM): 50% | effect on cell cycle [21]: results in cell cycle arrest
